Assays:
GABABR1R2 = GABABR1R2 (Homo sapiens, UniProt O75899+Q9UBS5); conditions: cited from earlier work; for effect on their own at GABAB receptors: absence of GABA; for effect on potency and maximal efficacy of GABA: in concert with endogenous GABA, GABABR1R2
human GABABR1aR2a = biological target: T1, human GABABR1aR2a (Homo sapiens, UniProt O75899+Q9UBS5); experiment: Intracellular Ca2+ mobilization assay in CHO-GABABR1aR2a-Gα16 cell (FLIPR); assay type: cell-based; conditions: for GABA shift Log [EC50(GABA + 10 μM cp)/EC50(GABA alone)]: GABA 0.0003-30 μM in absence and presence of 10 μM enhancer; for Emax: enhancer 0.001-30 μM in the presence of 10 nM GABA (EC10), enhancer applied 15 min before GABA, read-out: Emax (%) at 10 nM GABA alone = 0% 10 μM GABA alone = 100%; for EC50: enhancer concentration-response (0.001-30 μM) in the presence of 10 nM GABA
T1 construct: expressed in transfected cells
Method: Intracellular Ca^2+ Mobilization Assay
The Chinese Hamster Ovary (CHO) cells stably expressing human GABABR1aR2a and Gα16 were seeded at 5×10^4 cells/well in the poly-D-lysine treated, 96-well, black/clear-bottomed plates (BD Biosciences, Palo Alto, Calif.). 24 h later, the cells were loaded for 90 min at 37° C. with 4 μM Flou-4 acetoxymethyl ester (Catalog No. F-14202, Molecular Probes, Eugene, Oreg.) in loading buffer (1×HBSS, 20 mM HEPES, 2.5 mM Probenecid). Hanks' Balanced Salt Solution (HBSS) (10×) (catalog No. 14065-049) and HEPES (1M) (catalog No. 15630-056) were purchased from Invitrogen, Carlsbad, Calif. Probenecid (250 mM) (catalog No. P8761) was from Sigma, Buchs, Switzerland. The cells were washed five times with loading buffer to remove excess dye and intracellular calcium mobilization, [Ca^2+]i were measured using a Fluorometric Imaging Plate Reader (FLIPR, Molecular Devices, Menlo Park, Calif.) as described previously (Porter et al., Br. J. Pharmacol., 128, 13-20, 1999). The enhancers were applied 15 min before the application of the GABA. For GABA shift assay, concentration-response curves of GABA (0.0003-30 μM) were determined in the absence and presence of 10 μM enhancer. The GABA-shift is defined as Log [EC50 (GABA+10 μM enhancer)/EC50 (GABA alone)]. The % maximum enhancing effect (% Emax) and potency (EC50 value) of each enhancer was determined from concentration-response curve of the enhancer (0.001-30 μM) in the presence of 10 nM GABA (EC10). Responses were measured as peak increase in fluorescence minus basal, normalized to the maximal stimulatory effect induced by 10 μM GABA alone (considered 100%) and 10 nM GABA alone (considered 0%). The data were fitted with the equation Y=100+(Max−100)/(1+(EC50/[drug])^n) where Max is the maximum effect, EC50 the concentration eliciting a half-maximum effect and n the Hill slope.

[1] = rats; cited from earlier work
[2] = preclinical; cited from earlier work
[3] = PO, cited from earlier work
[4] = panic disorder patients; Hamilton, Zung anxiety scales, Katz-R nervousness subscale; cited from earlier work
[5] = small group of veterans with chronic, combat-related PTSD; cited from earlier work
[6] = rat; cited from earlier work
[7] = passive avoidance behavioral test in mice and rats; cited from earlier work
[8] = cited from earlier work

T1 sequence (Q9UBS5 15-961 limits assumed): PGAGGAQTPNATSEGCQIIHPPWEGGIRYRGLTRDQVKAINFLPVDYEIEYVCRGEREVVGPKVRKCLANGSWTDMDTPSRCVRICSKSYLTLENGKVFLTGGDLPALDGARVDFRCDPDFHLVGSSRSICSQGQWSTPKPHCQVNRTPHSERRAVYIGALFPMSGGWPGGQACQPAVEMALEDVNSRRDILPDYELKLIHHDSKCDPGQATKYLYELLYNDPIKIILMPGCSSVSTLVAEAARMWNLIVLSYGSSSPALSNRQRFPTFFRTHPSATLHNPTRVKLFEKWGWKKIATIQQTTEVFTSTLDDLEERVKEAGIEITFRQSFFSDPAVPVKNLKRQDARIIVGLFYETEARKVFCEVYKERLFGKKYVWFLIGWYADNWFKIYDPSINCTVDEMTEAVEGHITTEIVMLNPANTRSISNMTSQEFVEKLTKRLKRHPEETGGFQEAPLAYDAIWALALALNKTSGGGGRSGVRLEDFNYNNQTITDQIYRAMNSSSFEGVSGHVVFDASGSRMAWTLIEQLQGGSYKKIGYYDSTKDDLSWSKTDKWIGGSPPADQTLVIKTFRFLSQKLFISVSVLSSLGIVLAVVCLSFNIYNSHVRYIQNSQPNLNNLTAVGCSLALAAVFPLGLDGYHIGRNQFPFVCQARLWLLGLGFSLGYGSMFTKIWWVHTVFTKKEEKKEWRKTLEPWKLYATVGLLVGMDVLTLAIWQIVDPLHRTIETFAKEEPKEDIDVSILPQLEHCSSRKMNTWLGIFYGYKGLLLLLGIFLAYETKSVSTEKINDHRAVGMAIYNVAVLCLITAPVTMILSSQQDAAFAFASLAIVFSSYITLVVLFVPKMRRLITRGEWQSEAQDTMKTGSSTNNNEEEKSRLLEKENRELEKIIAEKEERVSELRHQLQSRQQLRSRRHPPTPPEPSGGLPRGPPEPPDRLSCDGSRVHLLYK
T1 sequence (O75899 42-941): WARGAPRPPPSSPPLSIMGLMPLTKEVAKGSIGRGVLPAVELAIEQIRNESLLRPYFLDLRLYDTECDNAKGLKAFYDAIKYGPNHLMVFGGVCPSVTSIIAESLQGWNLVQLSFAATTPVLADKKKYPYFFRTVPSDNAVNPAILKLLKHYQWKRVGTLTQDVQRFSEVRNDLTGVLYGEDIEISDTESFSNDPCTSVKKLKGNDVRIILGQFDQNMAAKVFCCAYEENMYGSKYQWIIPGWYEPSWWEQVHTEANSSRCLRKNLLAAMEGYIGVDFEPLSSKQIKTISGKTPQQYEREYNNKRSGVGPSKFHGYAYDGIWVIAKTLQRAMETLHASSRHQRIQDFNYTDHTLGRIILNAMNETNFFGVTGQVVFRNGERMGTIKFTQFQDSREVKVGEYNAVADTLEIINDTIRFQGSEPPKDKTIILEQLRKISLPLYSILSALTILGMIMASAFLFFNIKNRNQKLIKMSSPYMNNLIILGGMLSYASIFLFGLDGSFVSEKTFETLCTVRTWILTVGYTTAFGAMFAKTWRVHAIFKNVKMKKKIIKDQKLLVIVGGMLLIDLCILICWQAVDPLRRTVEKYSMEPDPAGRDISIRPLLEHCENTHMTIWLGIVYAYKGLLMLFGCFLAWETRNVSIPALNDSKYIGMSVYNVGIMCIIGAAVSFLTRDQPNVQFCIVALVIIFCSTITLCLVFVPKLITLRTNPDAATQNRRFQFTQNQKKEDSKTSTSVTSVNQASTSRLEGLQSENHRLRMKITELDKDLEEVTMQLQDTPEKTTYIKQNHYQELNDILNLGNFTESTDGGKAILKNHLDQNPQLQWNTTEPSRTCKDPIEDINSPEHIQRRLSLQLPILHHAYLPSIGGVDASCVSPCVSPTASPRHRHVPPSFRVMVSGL
Sequence of GABABR1R2 (Q9UBS5 20-961): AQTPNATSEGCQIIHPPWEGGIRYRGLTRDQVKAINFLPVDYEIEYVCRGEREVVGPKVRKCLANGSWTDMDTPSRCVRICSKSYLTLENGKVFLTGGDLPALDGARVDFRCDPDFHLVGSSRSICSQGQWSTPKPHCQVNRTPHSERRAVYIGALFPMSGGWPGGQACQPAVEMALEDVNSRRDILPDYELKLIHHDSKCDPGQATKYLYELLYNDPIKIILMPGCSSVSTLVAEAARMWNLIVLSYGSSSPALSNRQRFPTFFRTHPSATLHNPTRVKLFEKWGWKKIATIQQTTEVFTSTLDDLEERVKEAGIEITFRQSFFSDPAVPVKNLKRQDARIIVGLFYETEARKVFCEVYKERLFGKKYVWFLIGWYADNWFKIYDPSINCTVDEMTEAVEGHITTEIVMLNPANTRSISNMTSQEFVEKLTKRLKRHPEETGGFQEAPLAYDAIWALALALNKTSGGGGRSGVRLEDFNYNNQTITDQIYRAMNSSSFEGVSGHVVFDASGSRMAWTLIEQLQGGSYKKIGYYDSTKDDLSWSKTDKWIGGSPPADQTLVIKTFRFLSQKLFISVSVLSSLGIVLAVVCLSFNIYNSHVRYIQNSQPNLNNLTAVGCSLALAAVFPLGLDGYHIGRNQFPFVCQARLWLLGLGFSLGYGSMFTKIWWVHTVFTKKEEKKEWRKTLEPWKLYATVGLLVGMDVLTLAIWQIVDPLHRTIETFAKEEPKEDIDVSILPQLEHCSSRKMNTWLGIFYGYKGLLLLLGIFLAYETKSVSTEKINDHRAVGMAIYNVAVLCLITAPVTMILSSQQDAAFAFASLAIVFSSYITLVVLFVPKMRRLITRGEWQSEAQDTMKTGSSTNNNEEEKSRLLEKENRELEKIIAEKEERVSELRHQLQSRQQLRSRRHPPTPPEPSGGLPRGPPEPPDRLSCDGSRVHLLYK
Sequence of GABABR1R2 (O75899 42-941): as the sequence (O75899 42-941) above

Row | GABA shift Log [EC50(GABA + 10 μM cp)/EC50(GABA alone)] (human GABABR1aR2a) | Emax (human GABABR1aR2a) [%] | EC50 (human GABABR1aR2a) [µM] | Compound | other results
1 |  |  |  | CC(C)(C=O)Cc1cc(C(C)(C)C)c(O)c(C(C)(C)C)c1 [CGP13501] | effect on their own at GABAB receptors (GABABR1R2): no effect on their own; effect on potency and maximal efficacy of GABA (GABABR1R2): increase both the potency and maximal efficacy of GABA
2 | −0.9 | 69 | 2.4 | Cc1nc2sc(C)c(C)c2c(-c2ccccc2)c1C(=O)C(F)(F)F [Example 16, 2,2,2-Trifluoro-1-(2,3,6-trimethyl-4-phenyl-thieno[2,3-b]pyridin-5-yl)-ethanone] | 
3 | −1 | 58 | 0.86 | CC(=O)c1c(C)nc2sc3c(c2c1-c1ccco1)CCC3 [Example 18, 1-(4-Furan-2-yl-2-methyl-6,7-dihydro-5H-cyclopenta[4,5]thieno[2,3-b]pyridin-3-yl)-ethanone] | 
4 | −0.3 | 47 | 14.7 | Cc1nc2sc3c(c2c(-c2ccc(Cl)c(Cl)c2)c1C(=O)C(F)(F)F)CCC3 [Example 1, 1-[4-(3,4-Dichloro-phenyl)-2-methyl-6,7-dihydro-5H-cyclopenta[4,5]thieno[2,3-b]pyridin-3-yl]-2,2,2-trifluoro-ethanone] | 
5 | −0.91 | 56 | 1.2 | COC(=O)c1ccc(-c2c(C(=O)C3CC3)c(C)nc3sc4c(c23)CCCCC4)cc1 [Example 35, 4-(3-Cyclopropanecarbonyl-2-methyl-6,7,8,9-tetrahydro-H-10-thia-1-aza-benzo [a]azulen-4-yl)-benzoic acid methyl ester] | 
6 |  |  |  | CC(C)(CO)Cc1cc(C(C)(C)C)c(O)c(C(C)(C)C)c1 [CGP7930, 2,6-di-tert-butyl-4-(3-hydroxy-2,2-dimethyl-propyl)-phenol] | cocaine self-administration [1]: effective at deceasing cocaine self-administration; efficacy for treatment of GERD [2]: found to be effective; effect on their own at GABAB receptors (GABABR1R2): no effect on their own; effect on potency and maximal efficacy of GABA (GABABR1R2): increase both the potency and maximal efficacy of GABA
7 | −0.9 | 59 | 1.3 | Cc1nc2sc3c(c2c(-c2cccs2)c1C(=O)C(F)(F)F)CCC3 [Example 2, 2,2,2-Trifluoro-1-(2-methyl-4-thiophen-2-yl-6,7-dihydro-5H-cyclopenta[4,5]thieno[2,3-b]pyridin-3-yl)-ethanone] | 
8 |  |  |  | NCC(CC(=O)O)c1ccc(Cl)cc1 (stereo not drawn) [Baclofen, β-chlorophenyl GABA] | side effects (spontaneous locomotor activity, rotarod, body temperature, traction test) ([3]; 2.5-15 mg/kg): showed these side effects; number of panic attacks and symptoms of anxiety [4]: significantly effective in reducing the number of panic attacks and symptoms of anxiety; treatment of PTSD [5]: effective and well-tolerated treatment; reversal of reduction in prepulse inhibition (PPI) induced by dizocilpine [6]: able to reverse the reduction in prepulse inhibition
9 | −0.3 | 20 | 1.4 | COC(=O)N1CCc2c(sc3nc(C)c(C(C)=O)c(-c4ccccc4)c23)C1 [Example 38, 3-Acetyl-2-methyl-4-phenyl-5,8-dihydro-6H-9-thia-1,7-diaza-fluorene-7-carboxylic acid methyl ester] | 
10 | −0.6 | 35 | 1.3 | CC(=O)c1c(C)nc2sc3cnccc3c2c1-c1ccccc1 [Example 23, 1-(2-Methyl-4-phenyl-9-thia-1,7-diaza-fluoren-3-yl)-ethanone] | 
11 | −1.1 | 66 | 1.9 | Cc1nc2sc(Cl)cc2c(-c2ccccc2)c1C(=O)C(F)(F)F [Example 21, 1-(2-Chloro-6-methyl-4-phenyl-thieno[2,3-b]pyridin-5-yl)-2,2,2-trifluoro-ethanone] | 
12 |  |  |  | CSc1nc(NC2CCCC2)c([N+](=O)[O-])c(NC2CCCC2)n1 [GS39783, N,N_-dicyclopentyl-2-methylsulfanyl-5-nitro-pyrimidine-4,6-diamine] | effect on spontaneous locomotor activity, rotarod, body temperature and traction test ([3]; 0.1-200 mg/kg): had no effect; effect on cognition performance [7]: did not have any effect; tolerance after chronic treatment ([8]; 21 days, 10 mg/kg, P.O., once daily, light-dark box and elevated zero maze): No tolerance; anxiolytic-like effects ([8]; elevated plus maze (rat), elevated zero maze (mice and rats), stress-induced hyperthermia (mice)): exhibited anxiolytic-like effects; cocaine self-administration [1]: effective at deceasing cocaine self-administration

— patent US7390903B2, “Thieno-pyridine derivatives as allosteric enhancers of the GABAB receptors” (Hoffmann-La Roche Inc., priority 2004, dated 2008)
